PubChem BioAssay (NCI)
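The compound was tested at five concentrations on cells cultured in 96-well plates, with a 48-hour exposure period. GI50 marks 50% less growth. The concentration for full growth arrest is given as TGI.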

Assays:
Experiment in all cases: NCI-60 cell line screen, 48 h
SR leukemia = tested on: SR leukemia
HOP-62 NSCLC = tested on: HOP-62 NSCLC
K-562 leukemia = tested on: K-562 leukemia
NCI-H226 lung = tested on: NCI-H226 lung
NCI-H522 lung = tested on: NCI-H522 lung
SF-268 CNS = tested on: SF-268 CNS
OVCAR-4 ovarian = tested on: OVCAR-4 ovarian
CAKI-1 renal = tested on: CAKI-1 renal
HL-60(TB) leukemia = tested on: HL-60(TB) leukemia
MALME-3M melanoma = tested on: MALME-3M melanoma

| SMILES | GI50 (SR leukemia) [µM] | TGI (SR leukemia) [µM] | GI50 (HOP-62 NSCLC) [µM] | TGI (HOP-62 NSCLC) [µM] | GI50 (K-562 leukemia) [µM] | TGI (K-562 leukemia) [µM] | GI50 (NCI-H226 lung) [µM] | TGI (NCI-H226 lung) [µM] | GI50 (NCI-H522 lung) [µM] | TGI (NCI-H522 lung) [µM] | GI50 (SF-268 CNS) [µM] | TGI (SF-268 CNS) [µM] | GI50 (OVCAR-4 ovarian) [µM] | TGI (OVCAR-4 ovarian) [µM] | GI50 (CAKI-1 renal) [µM] | TGI (CAKI-1 renal) [µM] | GI50 (HL-60(TB) leukemia) [µM] | TGI (HL-60(TB) leukemia) [µM] | TGI (MALME-3M melanoma) [µM] | GI50 (MALME-3M melanoma) [µM] |
| --- | --- | --- | --- | --- | --- | --- | --- | --- | --- | --- | --- | --- | --- | --- | --- | --- | --- | --- | --- | --- |
| N#C/C(=C\c1ccc(-c2ccc(Cl)cc2)o1)C(=O)Nc1ncc(Cc2ccc(Cl)cc2)s1 | 0.772 | 6.48 | 2.26 | 6.33 | 3.92 | > 100 | 2.08 | 5.41 | 1.94 | 4.86 | 2.68 | 19.8 | 0.422 | 2.01 | 1.63 | 3.46 | > 100 | > 100 |  |  |
| CS(=O)(=O)NNS(=O)(=O)c1cccc([N+](=O)[O-])c1 |  | > 100 |  | > 100 |  | > 100 |  | > 100 |  | > 100 |  |  |  | > 100 |  | > 100 |  | > 100 | > 100 |  |
| Cn1c2ccccc2c(=S)c2ccccc21 |  | > 100 |  | > 100 |  | > 100 |  | > 100 |  | > 100 |  | > 100 |  |  |  | > 100 |  |  |  |  |
| COC(=O)C1=C2CCC(=O)[C@@]2(C)C(OC(C)=O)C=CC1 (some centres not stated) |  |  |  | > 100 |  | > 100 |  | > 100 |  |  |  |  |  | > 100 |  | > 100 |  | > 100 | > 100 |  |
| Cc1nc(Cl)nc(Cl)c1C |  | > 100 |  | > 100 |  | > 100 |  | > 100 |  | > 100 |  | > 100 |  | > 100 |  |  |  | > 100 | > 100 |  |
| CC1CC2(C)ON=C(c3ccccc3)N2c2ccccc2S1 (configuration not stated) | 34.6 |  | 56.7 |  | 16.3 | 43 |  |  | 27.5 | 65.5 | 36.3 |  | 88 |  | 78.6 |  | 23.5 |  |  |  |
| C/C=C(\C)C(=O)N[C@H]1CC[C@]2(C)C3CC[C@@]4(C)C(CC[C@@H]4C(C)N(C)C)C3CCC2[C@H]1OC(C)=O (some centres not stated) |  |  | 1.76 | 3.46 | 0.524 | 2.17 | 2.38 | 7.53 | 2.14 | 5.24 | 1.39 | 2.89 | 2.43 | 14.6 | 2.11 | 4.86 | 1.88 | 4.52 | 3.73 | 1.91 |
| COc1cc2nc3sc(C(=O)Nc4ccc(C(=O)OC(C)C)cc4)c(C(=O)Nc4ccc(Cl)cc4C)n3c(=O)c2cc1OC | 3.05 | 14.1 | 18.7 | 52.2 | 5.29 | > 100 | 16.6 | 43.4 |  |  | 9.45 | 43.3 | 11.2 | > 100 | 26.1 | > 100 | 7.59 | 35.2 | 2.44 | 0.0691 |
| C/C(=C\C(C)COCc1ccccc1)[C@H](COCc1ccccc1)OCc1ccccc1 (some centres not stated) |  |  |  | > 100 |  | > 100 |  | > 100 |  | > 100 |  | > 100 |  | > 100 |  |  |  |  |  |  |
